Test results as given in ChEMBL document CHEMBL1201862, “PubChem BioAssay data set” (2004).
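Cells were grown in 96-well plates and exposed to each compound for 48 hours at five concentrations; endpoints were interpolated linearly between bracketing concentrations, or set to the highest concentration if not reached. Here, GI50 denotes the concentration required for 50% inhibition of growth.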 Activity calls are given as the source filed them. Rule as the data show it: active = GI50 up to about 1.1 µM and inactive = higher.

Experiments:
Assay in all cases: NCI-60 cell line screen, 48 h
T47D = system: T47D
SW-620 = system: SW-620
UACC-257 = system: UACC-257
SN12C = system: SN12C
MDA-MB-231 = system: MDA-MB-231
SF-539 = system: SF-539
TK-10 = system: TK-10
Hs-578T = system: Hs-578T
CAKI-1 = system: CAKI-1
SK-MEL-28 = system: SK-MEL-28
SF-268 = system: SF-268
SNB-75 = system: SNB-75
NCI-H460 = system: NCI-H460
MCF7 = system: MCF7
HOP-62 = system: HOP-62
MDA-N = system: MDA-N
SK-MEL-2 = system: SK-MEL-2
CCRF-CEM = system: CCRF-CEM
KM12 = system: KM12
UACC-62 = system: UACC-62
HCT-116 = system: HCT-116
HT-29 = system: HT-29
K562 = system: K562
SNB-19 = system: SNB-19
MOLT-4 = system: MOLT-4
786-0 = system: 786-0
NCI-H23 = system: NCI-H23
HL-60 = system: HL-60
EKVX = system: EKVX
DU-145 = system: DU-145
IGROV-1 = system: IGROV-1
BT-549 = system: BT-549
OVCAR-5 = system: OVCAR-5
SK-OV-3 = system: SK-OV-3
NCI/ADR-RES = system: NCI/ADR-RES
SF-295 = system: SF-295
HCC 2998 = system: HCC 2998
OVCAR-8 = system: OVCAR-8
RXF 393 = system: RXF 393
SR = system: SR
ACHN = system: ACHN
NCI-H522 = system: NCI-H522
A549 = system: A549
HCT-15 = system: HCT-15
M14 = system: M14
NCI-H226 = system: NCI-H226
U-251 = system: U-251
LOX IMVI = system: LOX IMVI
UO-31 = system: UO-31
COLO 205 = system: COLO 205
Malme-3M = system: Malme-3M
PC-3 = system: PC-3
OVCAR-4 = system: OVCAR-4
SK-MEL-5 = system: SK-MEL-5
A498 = system: A498
RPMI-8226 = system: RPMI-8226
OVCAR-3 = system: OVCAR-3
HOP-92 = system: HOP-92

Measured: GI50

O=C1CCCC2C(O)CCC[C@H]12 (some centres not stated)
inactive: T47D > 100 µM | SW-620 > 100 µM | UACC-257 > 100 µM | SN12C > 100 µM | MDA-MB-231 > 100 µM | SF-539 > 100 µM | TK-10 > 100 µM | Hs-578T > 100 µM | CAKI-1 > 100 µM | SK-MEL-28 > 100 µM | SF-268 > 100 µM | SNB-75 > 100 µM | NCI-H460 > 100 µM | MCF7 > 100 µM | HOP-62 > 100 µM | MDA-N > 100 µM | SK-MEL-2 > 100 µM | CCRF-CEM > 100 µM | KM12 > 100 µM | UACC-62 > 100 µM | HCT-116 > 100 µM | HT-29 > 100 µM | K562 > 100 µM | SNB-19 > 100 µM | MOLT-4 > 100 µM | 786-0 > 100 µM | NCI-H23 > 100 µM | HL-60 > 100 µM | EKVX > 100 µM | DU-145 > 100 µM | IGROV-1 > 100 µM | BT-549 > 100 µM | OVCAR-5 > 100 µM | SK-OV-3 > 100 µM | NCI/ADR-RES > 100 µM | SF-295 > 100 µM | HCC 2998 > 100 µM | OVCAR-8 > 100 µM | RXF 393 11.4 µM | SR > 100 µM | ACHN > 100 µM | NCI-H522 > 100 µM | A549 > 100 µM | M14 > 100 µM | NCI-H226 > 100 µM | U-251 > 100 µM | LOX IMVI > 100 µM | UO-31 51.1 µM | COLO 205 > 100 µM | Malme-3M > 100 µM | PC-3 > 100 µM | OVCAR-4 > 100 µM | SK-MEL-5 > 100 µM
> 100 µM: HCT-15

CC(=O)Oc1ccc2cc(Oc3ccc(Cl)c(Cl)c3)c(=O)oc2c1
inactive: A498 22.3 µM | T47D 11.5 µM | SW-620 33.3 µM | UACC-257 25.1 µM | SN12C 24.9 µM | MDA-MB-231 27 µM | SF-539 19.7 µM | TK-10 17.9 µM | Hs-578T 33 µM | CAKI-1 20.3 µM | SK-MEL-28 25.3 µM | SF-268 34 µM | SNB-75 22 µM | NCI-H460 24 µM | MCF7 34.8 µM | HOP-62 25.2 µM | MDA-N 25.9 µM | CCRF-CEM 18.3 µM | KM12 18.5 µM | RPMI-8226 20.4 µM | HCT-116 18.5 µM | HT-29 35.5 µM | K562 25.4 µM | SNB-19 27.9 µM | MOLT-4 18.3 µM | 786-0 19.5 µM | NCI-H23 35.6 µM | HL-60 60.5 µM | EKVX 24 µM | DU-145 39.3 µM | IGROV-1 29.4 µM | BT-549 12.6 µM | OVCAR-5 72.6 µM | SF-295 38.1 µM | HCC 2998 19.5 µM | OVCAR-8 32 µM | RXF 393 19.2 µM | SR 35.3 µM | ACHN 25.8 µM | NCI-H522 21.2 µM | A549 31.3 µM | M14 38.5 µM | NCI-H226 26.6 µM | U-251 16 µM | LOX IMVI 19.7 µM | UO-31 15.5 µM | Malme-3M 29.2 µM | OVCAR-3 22.9 µM | PC-3 24.7 µM | HOP-92 20.3 µM | OVCAR-4 41.8 µM | SK-MEL-5 20.3 µM
14.6 µM: HCT-15
